Reference: patent US12404289B2 (Gilead Sciences, Inc., priority 2020, dated 2025)
Where two headings read alike, the source gives them in different places.

Tests used:
SARS-CoV-2 = SARS-CoV-2 antiviral assay (A549-hACE2, Nano luciferase); assay type: cell-based; settings: A549-hACE2 cells, SARS-CoV2-Nano, MOI 0.025, 48 h, Table 4, read-out: EC50 SARS CoV2
[1] = tested on: Respiratory syncytial virus (RSV) strain A2; assay: Hep-2 RSV2 384-well assay (EC50-HEP2-384); assay type: cell-based; settings: HEp-2 cells, RSV A2, MOI=4, 4 days, Table 3
[2] = Severe acute respiratory syndrome coronavirus 2, 48 h
[3] = human respiratory syncytial virus, HEp-2, 96 h

C[C@@H](CC(=O)OC1CCC1)NP(=O)(OC[C@H]1O[C@@](C#N)(c2ccc3c(N)ncnn23)[C@H](O)[C@@H]1O)Oc1ccc(C(C)(C)C)cc1 (stereo partly drawn) [Example 165, cyclobutyl (3S)-3-(((((2R,3S,4R,5R)-5-(4-aminopyrrolo[2,1-f][1,2,4]triazin-7-yl)-5-cyano-3,4-dihydroxytetrahydrofuran-2-yl)methoxy)(4-(tert-butyl)phenoxy)phosphoryl)amino)butanoate]
EC50 (SARS-CoV-2; [2]): 10000 nM
EC50 [1, 3]: 5000 nM

C[C@H](NP(=O)(OC[C@H]1O[C@@](C#N)(c2ccc3c(N)ncnn23)[C@H](O)[C@@H]1O)Oc1ccc(C(C)(C)C)cc1)C(=O)OCC1CC1 (stereo partly drawn) [Example 101a, Cyclopropyl methyl ((((2R,3S,4R,5R)-5-(4-aminopyrrolo[2,1-f][1,2,4]triazin-7-yl)-5-cyano-3,4-dihydroxytetrahydrofuran-2-yl)methoxy)(4-(tert-butyl)phenoxy)phosphoryl)-L-alaninate]
EC50 (SARS-CoV-2; [2]): 148 nM
EC50 [1, 3]: 41.1 nM

CCC(=O)O[C@H]1[C@@H](OC(=O)CC)[C@](C#N)(c2ccc3c(N)ncnn23)O[C@@H]1COP(=O)(N[C@@H](C)C(=O)OCC(C)C)Oc1ccc(C(C)(C)C)cc1 (stereo partly drawn) [Example 138, (2R,3R,4R,5R)-2-(4-aminopyrrolo[2,1-f][1,2,4]triazin-7-yl)-5-((((4-(tert-butyl)phenoxy)(((S)-1-isobutoxy-1-oxopropan-2-yl)amino)phosphoryl)oxy)methyl)-2-cyanotetrahydrofuran-3,4-diyl Dipropionate]
EC50 (SARS-CoV-2; [2]): 342 nM
EC50 [1, 3]: 36.6 nM

CC(C)C(=O)O[C@H]1[C@@H](OC(=O)C(C)C)[C@](C#N)(c2ccc3c(N)ncnn23)O[C@@H]1COP(=O)(N[C@@H](C)C(=O)OC1CC(C)(C)C1)Oc1ccc(C(C)(C)C)cc1 (stereo partly drawn) [Example 94, (2R,3R,4R,5R)-2-(4-aminopyrrolo[2,1-f][1,2,4]triazin-7-yl)-5-((((4-(tert-butyl)phenoxy)(((S)-1-(3,3-dimethylcyclobutoxy)-1-oxopropan-2-yl)amino)phosphoryl)oxy)methyl)-2-cyanotetrahydrofuran-3,4-diyl bis(2-methylpropanoate)]
EC50 (SARS-CoV-2; [2]): 370 nM
EC50 [1, 3]: 84.5 nM

C[C@H](NP(=O)(OC[C@H]1O[C@@](C#N)(c2ccc3c(N)ncnn23)[C@H](O)[C@@H]1O)Oc1ccc(C(C)(C)C)cc1)C(=O)OCC1CCCCC1 (stereo partly drawn) [Example 156, Cyclohexylmethyl ((((2R,3S,4R,5R)-5-(4-aminopyrrolo[2,1-f][1,2,4]triazin-7-yl)-5-cyano-3,4-dihydroxytetrahydrofuran-2-yl)methoxy)(4-(tert-butyl)phenoxy)phosphoryl)-L-alaninate]
EC50 (SARS-CoV-2; [2]): 363 nM
EC50 [1, 3]: 195 nM

CCC(=O)O[C@H]1[C@@H](OC(=O)CC)[C@](C#N)(c2ccc3c(N)ncnn23)O[C@@H]1COP(=O)(N[C@@H](C)C(=O)OC1CC(C)(C)C1)Oc1ccc(C(C)(C)C)cc1 (stereo partly drawn) [Example 95, (2R,3R,4R,5R)-2-(4-aminopyrrolo[2,1-f][1,2,4]triazin-7-yl)-5-((((4-(tert-butyl)phenoxy)(((S)-1-(3,3-dimethylcyclobutoxy)-1-oxopropan-2-yl)amino)phosphoryl)oxy)methyl)-2-cyanotetrahydrofuran-3,4-diyl Dipropionate]
EC50 (SARS-CoV-2; [2]): 264 nM
EC50 [1, 3]: 61.8 nM

CCC(C)(C)CCOC(=O)[C@H](C)NP(=O)(OC[C@H]1O[C@@](C#N)(c2ccc3c(N)ncnn23)[C@H](OC(C)=O)[C@@H]1OC(C)=O)Oc1ccc(C(C)(C)C)cc1 (stereo partly drawn) [Example 159, (2R,3R,4R,5R)-2-(4-aminopyrrolo[2,1-f][1,2,4]triazin-7-yl)-5-((((4-(tert-butyl)phenoxy)(((S)-1-((3,3-dimethylpentyl)oxy)-1-oxopropan-2-yl)amino)phosphoryl)oxy)methyl)-2-cyanotetrahydrofuran-3,4-diyl Diacetate]
EC50 (SARS-CoV-2; [2]): 369 nM
EC50 [1, 3]: 79.3 nM

CC(=O)O[C@H]1[C@@H](OC(C)=O)[C@](C#N)(c2ccc3c(N)ncnn23)O[C@@H]1COP(=O)(N[C@@H](C)C(=O)OCC1CCC1)Oc1ccccc1 (stereo partly drawn) [Example 145, (2R,3R,4R,5R)-2-(4-aminopyrrolo[2,1-f][1,2,4]triazin-7-yl)-2-cyano-5-((((((S)-1-(cyclobutylmethoxy)-1-oxopropan-2-yl)amino)(phenoxy)phosphoryl)oxy)methyl)tetrahydrofuran-3,4-diyl Diacetate]
EC50 (SARS-CoV-2; [2]): 101 nM
EC50 [1, 3]: 35 nM

CC(=O)O[C@H]1[C@@H](OC(C)=O)[C@](C#N)(c2ccc3c(N)ncnn23)O[C@@H]1COP(=O)(N[C@@H](C)CC(=O)OC1CCC1)Oc1ccc(C(C)(C)C)cc1 (stereo partly drawn) [Example 166, (2R,3R,4R,5R)-2-(4-aminopyrrolo[2,1-f][1,2,4]triazin-7-yl)-5-((((4-(tert-butyl)phenoxy)(((S)-4-cyclobutoxy-4-oxobutan-2-yl)amino)phosphoryl)oxy)methyl)-2-cyanotetrahydrofuran-3,4-diyl Diacetate]
EC50 (SARS-CoV-2; [2]): 10000 nM
EC50 [1, 3]: 5000 nM

C[C@H](NP(=O)(OC[C@H]1O[C@@](C#N)(c2ccc3c(N)ncnn23)[C@H](O)[C@@H]1O)Oc1ccc(C(C)(C)C)cc1)C(=O)OC1CCC1 (stereo partly drawn) [Example 31, Cyclobutyl ((((2R,3S,4R,5R)-5-(4-aminopyrrolo[2,1-f][1,2,4]triazin-7-yl)-5-cyano-3,4-dihydroxytetrahydrofuran-2-yl)methoxy)(4-(tert-butyl)phenoxy)phosphoryl)-L-alaninate]
EC50 (SARS-CoV-2; [2]): 250 nM
EC50 [1, 3]: 53.2 nM

CC(=O)O[C@H]1[C@@H](OC(C)=O)[C@](C#N)(c2ccc3c(N)ncnn23)O[C@@H]1COP(=O)(N[C@@H](C)C(=O)OCC1CCCCC1)Oc1ccc(C(C)(C)C)cc1 (stereo partly drawn) [Example 163, (2R,3R,4R,5R)-2-(4-aminopyrrolo[2,1-f][1,2,4]triazin-7-yl)-5-((((4-(tert-butyl)phenoxy)(((S)-1-(cyclohexylmethoxy)-1-oxopropan-2-yl)amino)phosphoryl)oxy)methyl)-2-cyanotetrahydrofuran-3,4-diyl Diacetate]
EC50 (SARS-CoV-2; [2]): 378 nM
EC50 [1, 3]: 68 nM

CCC(C)(C)CCOC(=O)[C@H](C)NP(=O)(OC[C@H]1O[C@@](C#N)(c2ccc3c(N)ncnn23)[C@H](OC(C)=O)[C@@H]1OC(C)=O)Oc1ccccc1 (stereo partly drawn) [Example 106a, (2R,3R,4R,5R)-2-(4-aminopyrrolo[2,1-f][1,2,4]triazin-7-yl)-2-cyano-5-((((((S)-1-((3,3-dimethylpentyl)oxy)-1-oxopropan-2-yl)amino)(phenoxy)phosphoryl)oxy)methyl)tetrahydrofuran-3,4-diyl Diacetate]
EC50 (SARS-CoV-2; [2]): 83.1 nM
EC50 [1, 3]: 46.8 nM

CCC(=O)O[C@H]1[C@@H](OC(=O)CC)[C@](C#N)(c2ccc3c(N)ncnn23)O[C@@H]1COP(=O)(N[C@@H](C)C(=O)OCC1CC1)Oc1ccc(C(C)(C)C)cc1 (stereo partly drawn) [Example 103b, (2R,3R,4R,5R)-2-(4-aminopyrrolo[2,1-f][1,2,4]triazin-7-yl)-5-((((4-(tert-butyl)phenoxy)(((S)-1-(cyclopropylmethoxy)-1-oxopropan-2-yl)amino)phosphoryl)oxy)methyl)-2-cyanotetrahydrofuran-3,4-diyl Dipropionate]
EC50 (SARS-CoV-2; [2]): 363 nM
EC50 [1, 3]: 42 nM

CC(=O)O[C@H]1[C@@H](OC(C)=O)[C@](C#N)(c2ccc3c(N)ncnn23)O[C@@H]1CO[P@@](=O)(N[C@@H](C)C(=O)O[C@H]1CCOC1)Oc1ccc(C(C)(C)C)cc1 [Example 37, (2R,3R,4R,5R)-2-(4-aminopyrrolo[2,1-f][1,2,4]triazin-7-yl)-5-((((4-(tert-butyl)phenoxy)(((S)-1-oxo-1-(((S)-tetrahydrofuran-3-yl)oxy)propan-2-yl)amino)phosphoryl)oxy)methyl)-2-cyanotetrahydrofuran-3,4-diyl Diacetate]
EC50 (SARS-CoV-2; [2]): 282 nM
EC50 [1, 3]: 187 nM

CCC(CC)COC(=O)[C@H](C)NP(=O)(OC[C@H]1O[C@@](C#N)(c2ccc3c(N)ncnn23)[C@H](O)[C@@H]1O)Oc1ccccn1 (single isomer, unassigned) [Example 175a]
EC50 (SARS-CoV-2): 3360 nM
EC50 [1, 3]: 5000 nM

CCC(=O)O[C@H]1[C@@H](OC(=O)CC)[C@](C#N)(c2ccc3c(N)ncnn23)O[C@@H]1COP(=O)(N[C@@H](C)C(=O)OCCC(C)(C)CC)Oc1ccccc1 (stereo partly drawn) [Example 105a, (2R,3R,4R,5R)-2-(4-aminopyrrolo[2,1-f][1,2,4]triazin-7-yl)-2-cyano-5-((((((S)-1-((3,3-dimethylpentyl)oxy)-1-oxopropan-2-yl)amino)(phenoxy)phosphoryl)oxy)methyl)tetrahydrofuran-3,4-diyl Dipropionate]
EC50 (SARS-CoV-2; [2]): 133 nM
EC50 [1, 3]: 54.6 nM

CCC(CC)COC(=O)[C@H](C)N[P@](=O)(OC[C@H]1O[C@@](C#N)(c2ccc3c(N)ncnn23)[C@H](OC(C)=O)[C@@H]1OC(C)=O)Oc1cccc2c1CCCC2 [Example 143, (2R,3R,4R,5R)-2-(4-aminopyrrolo[2,1-f][1,2,4]triazin-7-yl)-2-cyano-5-((((S)—(((S)-1-(2-ethylbutoxy)-1-oxopropan-2-yl)amino)((5,6,7,8-tetrahydronaphthalen-1-yl)oxy)phosphoryl)oxy)methyl)tetrahydrofuran-3,4-diyl Diacetate]
EC50 [1]: 737 nM

CCC(CC)COC(=O)[C@H](C)NP(=O)(OC[C@H]1O[C@@](C#N)(c2ccc3c(N)ncnn23)[C@H](OC(=O)C(C)C)[C@@H]1OC(=O)C(C)C)Oc1ccc(OC2CCCCC2)cc1 (stereo partly drawn) [Example 153, (2R,3R,4R,5R)-2-(4-aminopyrrolo[2,1-f][1,2,4]triazin-7-yl)-2-cyano-5-((((4-(cyclohexyloxy)phenoxy)(((S)-1-(2-ethylbutoxy)-1-oxopropan-2-yl)amino)phosphoryl)oxy)methyl)tetrahydrofuran-3,4-diyl bis(2-methylpropanoate)]
EC50 [1, 3]: 270 nM
